{"source": "ChEMBL document CHEMBL4382198", "about": "“Discovery of Risdiplam, a Selective Survival of Motor Neuron-2 ( SMN2) Gene Splicing Modifier for the Treatment of Spinal Muscular Atrophy (SMA)” (J Med Chem, 2018)", "key": {"[1]": {"test": "Clearance in rat at 1.9 mg/kg, iv administered as single dose", "assay_type": "ADME, organism-based", "settings": "in vivo"}, "[2]": {"test": "Oral bioavailability in rat at 5.5 mg/kg administered as single dose", "assay_type": "ADME, organism-based", "settings": "in vivo"}, "[3]": {"test": "Fraction unbound in human plasma", "assay_type": "ADME, cell-free"}, "[4]": {"test": "Effect on FOXM1b/c mRNA splicing in cynomolgus monkey induced pluripotent stem cells by RT-qPCR analysis", "assay_type": "ADME, Macaca fascicularis", "settings": "Macaca fascicularis"}, "Mus musculus [5]": {"tested_on": "Mus musculus", "test": "In-vivo stabilization of SMN2 mRNA in SMA adult C/C allele mouse model assessed as increase in SMN protein levels in brain at 3 mg/kg, po dosed once daily for 10 days relative to control", "assay_type": "functional"}, "Mus musculus [6]": {"tested_on": "Mus musculus", "test": "In-vivo stabilization SMN2 mRNA in SMA delta7 ip dosed mouse assessed as increase in number of vGlut1 inputs in L3 to L5 spinal cord dosed daily starting from postnatal day 3 to postnatal day 14 by immunohistochemistry", "assay_type": "functional, organism-based"}, "Mus musculus [7]": {"tested_on": "Mus musculus", "test": "In-vivo stabilization of SMN2 mRNA in SMA adult C/C allele mouse model assessed as increase in SMN protein levels in quadriceps at 10 mg/kg, po dosed once daily for 10 days relative to control", "assay_type": "functional"}, "Mus musculus [8]": {"tested_on": "Mus musculus", "test": "In-vivo stabilization of SMN2 mRNA in SMA adult C/C allele mouse model assessed as increase in SMN protein levels in quadriceps at 1 mg/kg, po dosed once daily for 10 days relative to control", "assay_type": "functional"}, "Mus musculus [9]": {"tested_on": "Mus musculus", "test": "In-vivo stabilization SMN2 mRNA in SMA delta7 ip dosed mouse assessed as increase in muscle size dosed daily starting from postnatal day 3 to postnatal day 14 by immunohistochemistry", "assay_type": "functional, organism-based"}, "Mus musculus [10]": {"tested_on": "Mus musculus", "test": "In-vivo stabilization SMN2 mRNA in SMA delta7 ip dosed mouse assessed as increase in percentage of fully innervated NMJs dosed daily starting from postnatal day 3 to postnatal day 14 by immunohistochemistry", "assay_type": "functional, organism-based"}, "[11]": {"test": "Clearance in cynomolgus monkey at 0.1 mg/kg, iv administered as single dose", "assay_type": "ADME, organism-based, Macaca fascicularis", "settings": "in vivo"}, "[12]": {"test": "Effect on human FOXM1a mRNA splicing expressed in human SMA-derived fibroblasts by RT-qPCR analysis", "assay_type": "ADME"}, "[13]": {"test": "Stabilization of human APLP2 mRNA splicing expressed in human SMA-derived fibroblasts at 121 to 605 nM by RT-qPCR analysis", "assay_type": "ADME", "settings": "0.605 µM"}, "Homo sapiens": {"species_on_record": "Homo sapiens", "test": "Modulation of human SMN2 mRNAsplicing expressed in HEK293H cells by qRT-PCR analysis", "assay_type": "cell-based"}, "[14]": {"test": "Chronic toxicity in retina of po dosed cynomolgus monkey assessed as excess vacuolation of inner nuclear layer after 39 weeks by histological analysis", "assay_type": "organism-based, Macaca fascicularis", "settings": "in vivo, 6552 h"}, "[15]": {"test": "Lipophilicity, log D of the compound at pH 7.4", "assay_type": "physicochemical", "settings": "buffer"}, "Mus musculus [16]": {"tested_on": "Mus musculus", "test": "In-vivo stabilization SMN2 mRNA in SMA delta7 ip dosed mouse assessed as increased muscle size in the EDL dosed daily starting from postnatal day 3 to postnatal day 14 by immunohistochemistry", "assay_type": "functional, organism-based"}, "Mus musculus [17]": {"tested_on": "Mus musculus", "test": "In-vivo stabilization of SMN2 mRNA in SMA neonatal delta7 mouse model assessed as increase in SMN protein levels in brain at 0.3 mg/kg, ip dosed once daily starting from postnatal day 3 to postnatal day 9 relative to control", "assay_type": "functional"}, "[18]": {"test": "Volume of distribution at steady state in cynomolgus monkey at 0.1 mg/kg, iv administered as single dose", "assay_type": "ADME, organism-based, Macaca fascicularis", "settings": "in vivo, read-out: Vdss"}, "Mus musculus [19]": {"tested_on": "Mus musculus", "test": "In-vivo stabilization of SMN2 mRNA in SMA adult C/C allele mouse model assessed as increase in SMN protein levels in brain at 1 mg/kg, po dosed once daily for 10 days relative to control", "assay_type": "functional"}, "[20]": {"test": "Half life in cynomolgus monkey at 0.5 mg/kg, po administered as single dose", "assay_type": "ADME, organism-based, Macaca fascicularis", "settings": "in vivo"}, "Mus musculus [21]": {"tested_on": "Mus musculus", "test": "In-vivo stabilization of SMN2 mRNA in SMA neonatal delta7 mouse model assessed as increase in SMN protein levels in quadriceps at 10 mg/kg, ip dosed once daily starting from postnatal day 3 to postnatal day 9 relative to control", "assay_type": "functional"}, "NIH3T3": {"tested_on": "NIH3T3", "test": "Phototoxicity in mouse 3T3 cells assessed as decrease in cell viability at 9 uM in presence of UV light by neutral red uptake assay", "assay_type": "cell-based", "settings": "nih3t3, 9 µM"}, "[22]": {"test": "AUC (0 to 24 hrs) in SMA neonatal delta7 mouse model at 0.1 mg/kg, ip dosed once daily starting from postnatal day 3 to postnatal day 9", "assay_type": "ADME, organism-based", "parameters": "time < 24 hr, dose 0.1 mg/kg, route intraperitoneal", "settings": "in vivo"}, "[23]": {"test": "Chronic toxicity in retina of po dosed cynomolgus monkey assessed as formation of microcystic spaces in the inner retinal layers after 39 weeks by OCT analysis", "assay_type": "organism-based, Macaca fascicularis", "settings": "in vivo, 6552 h"}, "Mus musculus [24]": {"tested_on": "Mus musculus", "test": "In-vivo stabilization of SMN2 mRNA in SMA adult C/C allele mouse model assessed as increase in SMN protein levels in quadriceps at 3 mg/kg, po dosed once daily for 10 days relative to control", "assay_type": "functional"}, "[25]": {"target": "Survival motor neuron protein (Homo sapiens) (UniProt Q16637)", "sequence (Q16637 whole entry)": "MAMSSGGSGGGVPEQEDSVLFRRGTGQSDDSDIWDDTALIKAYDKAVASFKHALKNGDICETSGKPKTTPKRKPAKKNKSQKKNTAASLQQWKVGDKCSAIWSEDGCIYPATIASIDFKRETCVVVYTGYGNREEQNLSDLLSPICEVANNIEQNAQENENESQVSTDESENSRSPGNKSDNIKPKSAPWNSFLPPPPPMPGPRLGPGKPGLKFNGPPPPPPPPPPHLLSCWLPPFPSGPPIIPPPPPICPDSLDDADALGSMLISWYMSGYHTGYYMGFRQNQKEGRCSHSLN", "test": "Activation of SMN protein in human SMA-derived fibroblasts after 48 hrs by HTRF assay"}, "Mus musculus [26]": {"tested_on": "Mus musculus", "test": "In-vivo stabilization of SMN2 mRNA in SMA neonatal delta7 mouse model assessed as increase in SMN protein levels in brain at 10 mg/kg, ip dosed once daily starting from postnatal day 3 to postnatal day 9 relative to control", "assay_type": "functional"}, "[27]": {"test": "AUC (0 to 24 hrs) in SMA adult C/C allele mouse model at 1 mg/kg, po dosed once daily for 10 days", "assay_type": "ADME, organism-based", "parameters": "dose 1 mg/kg, time < 24 hr, route oral", "settings": "in vivo"}, "hERG (KCNH2)": {"target": "hERG (KCNH2) (Homo sapiens, UniProt Q12809)", "sequence (Q12809 whole entry)": "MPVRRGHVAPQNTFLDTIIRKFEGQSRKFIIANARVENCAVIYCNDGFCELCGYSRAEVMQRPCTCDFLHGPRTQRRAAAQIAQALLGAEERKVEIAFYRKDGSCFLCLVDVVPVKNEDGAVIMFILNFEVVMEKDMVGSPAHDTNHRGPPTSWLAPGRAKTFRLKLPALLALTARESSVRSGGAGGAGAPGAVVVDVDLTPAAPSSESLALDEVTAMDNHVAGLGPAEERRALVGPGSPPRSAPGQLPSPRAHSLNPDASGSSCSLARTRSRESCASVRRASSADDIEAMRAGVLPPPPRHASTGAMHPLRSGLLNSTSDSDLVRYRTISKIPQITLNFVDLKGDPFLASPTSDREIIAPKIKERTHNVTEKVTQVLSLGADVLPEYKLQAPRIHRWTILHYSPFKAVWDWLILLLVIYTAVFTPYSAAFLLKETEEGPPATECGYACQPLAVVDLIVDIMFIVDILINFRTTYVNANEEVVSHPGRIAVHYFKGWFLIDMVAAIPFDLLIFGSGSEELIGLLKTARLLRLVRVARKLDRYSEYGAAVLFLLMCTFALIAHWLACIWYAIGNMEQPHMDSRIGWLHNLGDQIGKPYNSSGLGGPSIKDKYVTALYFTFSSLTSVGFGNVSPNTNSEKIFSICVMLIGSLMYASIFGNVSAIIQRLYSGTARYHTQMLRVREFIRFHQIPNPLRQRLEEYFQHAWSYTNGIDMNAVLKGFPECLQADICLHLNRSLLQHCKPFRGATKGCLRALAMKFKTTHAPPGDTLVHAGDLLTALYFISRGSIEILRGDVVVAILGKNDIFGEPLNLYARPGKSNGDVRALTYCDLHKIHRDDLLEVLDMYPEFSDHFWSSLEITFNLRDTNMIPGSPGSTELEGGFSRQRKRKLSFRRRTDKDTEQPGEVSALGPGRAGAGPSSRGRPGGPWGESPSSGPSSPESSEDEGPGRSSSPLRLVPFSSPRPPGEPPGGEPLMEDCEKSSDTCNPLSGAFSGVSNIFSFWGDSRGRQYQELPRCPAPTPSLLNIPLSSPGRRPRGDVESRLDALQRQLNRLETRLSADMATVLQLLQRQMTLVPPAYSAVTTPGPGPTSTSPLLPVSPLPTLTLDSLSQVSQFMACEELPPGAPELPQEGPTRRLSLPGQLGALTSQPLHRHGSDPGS", "test": "Inhibition of human ERG at 37 degC", "settings": "human"}, "Mus musculus [28]": {"tested_on": "Mus musculus", "test": "In-vivo stabilization SMN2 mRNA in SMA delta7 ip dosed mouse assessed as increase in number of motor neurons dosed daily starting from postnatal day 3 to postnatal day 14 by immunohistochemistry", "assay_type": "functional, organism-based"}, "Mus musculus [29]": {"tested_on": "Mus musculus", "test": "In-vivo stabilization of SMN2 mRNA in SMA neonatal delta7 mouse model assessed as increase in SMN protein levels in quadriceps at 1 mg/kg, ip dosed once daily starting from postnatal day 3 to postnatal day 9 relative to control", "assay_type": "functional"}, "[30]": {"test": "Stabilization of human STRN3 mRNA splicing expressed in human SMA-derived fibroblasts at 121 to 605 nM by RT-qPCR analysis", "assay_type": "ADME", "settings": "0.605 µM"}, "[31]": {"test": "Stabilization of human […] mRNA splicing expressed in human SMA-derived fibroblasts at 121 to 605 nM by RT-qPCR analysis", "assay_type": "ADME", "settings": "0.605 µM"}, "[32]": {"test": "Effect on FOXM1b/c mRNA splicing in human induced pluripotent stem cells by RT-qPCR analysis", "assay_type": "ADME", "settings": "Homo sapiens"}, "[33]": {"test": "Chronic toxicity in retina of po dosed cynomolgus monkey assessed as RPE hypertrophy 39 weeks by histological analysis", "assay_type": "organism-based, Macaca fascicularis", "settings": "in vivo, 6552 h"}, "Mus musculus [34]": {"tested_on": "Mus musculus", "test": "In-vivo stabilization of SMN2 mRNA in SMA neonatal delta7 mouse model assessed as increase in SMN protein levels in brain at 0.1 mg/kg, ip dosed once daily starting from postnatal day 3 to postnatal day 9 relative to control", "assay_type": "functional"}, "[35]": {"test": "Chronic toxicity in retina of po dosed cynomolgus monkey assessed as formation of scotopic depressed B-waves after 39 weeks by ERG analysis", "assay_type": "organism-based, Macaca fascicularis", "settings": "in vivo, 6552 h"}, "[36]": {"test": "Chronic toxicity in retina of po dosed cynomolgus monkey assessed as effect on photo-receptor layers after 39 weeks by histological analysis", "assay_type": "organism-based, Macaca fascicularis", "settings": "in vivo, 6552 h"}, "[37]": {"test": "Toxicity in po dosed cynomolgus monkey assessed phospholipidosis administered via gavage up to 39 weeks", "assay_type": "organism-based, Macaca fascicularis", "settings": "in vivo, 6552 h"}}, "data": [{"smiles": "Cc1cn2nc(-c3cc(=O)n4cc(N5CCNC6(CC6)C5)ccc4n3)cc(C)c2n1", "values": [{"measurement": "clearance", "setting": "[1]", "result": 8.9, "unit": "mL/min/kg"}, {"measurement": "bioavailability", "setting": "[2]", "result": 100, "unit": "%"}, {"measurement": "fraction unbound", "setting": "[3]", "result": 0.11}, {"measurement": "IC50", "setting": "[4]", "result": 155, "unit": "nM"}, {"measurement": "Activity", "setting": "Mus musculus [5]", "result": 17, "unit": "%"}, {"measurement": "Activity", "setting": "Mus musculus [6]", "result": "Dose-dependent effect"}, {"measurement": "Activity", "setting": "Mus musculus [7]", "result": 49, "unit": "%"}, {"measurement": "Activity", "setting": "Mus musculus [8]", "result": 0, "unit": "%"}, {"measurement": "Activity", "setting": "Mus musculus [9]", "result": "Dose-dependent effect"}, {"measurement": "Activity", "setting": "Mus musculus [10]", "result": "Dose-dependent effect"}, {"measurement": "clearance", "setting": "[11]", "result": 5.7, "unit": "mL/min/kg"}, {"measurement": "EC50", "setting": "[12]", "result": 67, "unit": "nM"}, {"measurement": "Activity", "setting": "[13]", "result": "Non-Toxic"}, {"measurement": "EC1.5", "setting": "Homo sapiens", "result": 4, "unit": "nM"}, {"measurement": "Activity", "setting": "[14]", "result": "Toxic"}, {"measurement": "logD", "setting": "[15]", "result": 2.5}, {"measurement": "Activity", "setting": "Mus musculus [16]", "result": "Dose-dependent effect"}, {"measurement": "Activity", "setting": "Mus musculus [17]", "result": 90, "unit": "%"}, {"measurement": "Vd", "setting": "[18]", "result": 2, "unit": "L/kg"}, {"measurement": "Activity", "setting": "Mus musculus [19]", "result": 0, "unit": "%"}, {"measurement": "half-life", "setting": "[20]", "result": 5.4, "unit": "h"}, {"measurement": "Activity", "setting": "Mus musculus [21]", "result": 241, "unit": "%"}, {"measurement": "Activity", "setting": "NIH3T3", "result": "Non-Toxic"}, {"measurement": "AUC at 24 h", "setting": "[22]", "result": 2200, "unit": "ng·h/mL"}, {"measurement": "Activity", "setting": "[23]", "result": "Toxic"}, {"measurement": "Activity", "setting": "Mus musculus [24]", "result": 0, "unit": "%"}, {"measurement": "EC1.5", "setting": "[25]", "result": 29, "unit": "nM"}, {"measurement": "Activity", "setting": "Mus musculus [26]", "result": 202, "unit": "%"}, {"measurement": "AUC at 24 h", "setting": "[27]", "result": 9000, "unit": "ng·h/mL"}, {"measurement": "IC20", "setting": "hERG (KCNH2)", "result": "> 5000", "unit": "nM"}, {"measurement": "Activity", "setting": "Mus musculus [28]", "result": "Dose-dependent effect"}, {"measurement": "Activity", "setting": "Mus musculus [29]", "result": 210, "unit": "%"}, {"measurement": "Activity", "setting": "[30]", "result": "Non-Toxic"}, {"measurement": "Activity", "setting": "[31]", "result": "Non-Toxic"}, {"measurement": "IC50", "setting": "[32]", "result": 113, "unit": "nM"}, {"measurement": "Activity", "setting": "[33]", "result": "Toxic"}, {"measurement": "Activity", "setting": "Mus musculus [34]", "result": 28, "unit": "%"}, {"measurement": "Activity", "setting": "[35]", "result": "Toxic"}, {"measurement": "Activity", "setting": "[36]", "result": "Toxic"}, {"measurement": "Activity", "setting": "[37]", "result": "Non-Toxic"}]}]}
